The results in this text go back to ChEMBL document CHEMBL3045387, “Synthesis and Fungicidal Activity of New 1, 3, 2-Oxazaphospholidine 2-Sulfides” (1994).

What all share (assay type): functional
Common to all, as to settings: 96 h, read-out: GI

In test [1] the test system is Pythium. The test is described as follows: Antimicrobial activity against Pythium sp. assessed as inhibition of mycelial growth on potato dextrose agar at 100 ppm at 27 degC measured after 4 days.
The test system of test [2] is Corticium. The test is described as follows: Antimicrobial activity against Corticium sp. assessed as inhibition of mycelial growth on potato dextrose agar at 100 ppm at 27 degC measured after 4 days.
Test [3] deals with Pythium. In words: Antimicrobial activity against Pythium sp. assessed as inhibition of mycelial growth on potato dextrose agar at 1000 ppm at 27 degC measured after 4 days.
The test system of test [4] is Corticium. In words: Antimicrobial activity against Corticium sp. assessed as inhibition of mycelial growth on potato dextrose agar at 1000 ppm at 27 degC measured after 4 days.

Take `CC(C)=CCCC(C)CCOP1(=S)N[C@@H](CC(C)C)CO1` (some centres undefined): the results for the inhibition of growth at 100 ppm in test [1] and in test [2] were 24.7% and 26.7%, respectively. Besides, the values for the inhibition of growth at 1000 ppm in test [3] and in test [4] were 53.9% and 82.9%, respectively.
The corresponding values for `Cc1ccc(C(C)C)cc1` [P-CYMENE] are 0%, 14.4%, 0.2% and 13.6%.
The corresponding values for `CC1=CCC(O)(C(C)C)CC1` (centres undefined) [TERPINEOL] are 7.1%, 0%, 98.3% and 98.3%.
`CC[C@H](C)[C@H]1COP(=S)(OC/C=C(\C)CCC=C(C)C)N1` (some centres undefined): the inhibition of growth at 100 ppm in test [1] and in test [2] was 0% each time.
`Cc1ccc(OP2(=S)N[C@@H](CC(C)C)CO2)c(C(C)C)c1` (some centres undefined): the inhibition of growth at 100 ppm was 11.7% in test [1] and 14.6% in test [2]. The results for the inhibition of growth at 1000 ppm in test [3] and in test [4] were 58.2% and 64.3%, respectively.
For `Cc1ccc(C(C)C)c(OP2(=S)N[C@@H](Cc3ccccc3)CO2)c1` (some centres undefined) the same measures were 19.8%, 33.8%, 46% and 41%.
The corresponding values for `CC(C)=CCC/C(C)=C/COP1(=S)N[C@@H](CC(C)C)CO1` (some centres undefined) are 35.4%, 26.7%, 100% and 97.9%.
For `COC(=O)/C=C/c1ccccc1` [E-METHYL CINNAMATE] the same measures were 66%, 54%, 100% and 100%.
In the case of `CC(C)=CCC/C(C)=C/COP1(=S)N[C@@H](C(C)C)CO1` (some centres undefined), the inhibition of growth at 100 ppm in test [1] came to 68.2%; in test [2], 68.6%.
The corresponding values for `CC(C)=CCCC(C)CCOP1(=S)N[C@@H](C(C)C)CO1` (some centres undefined) are 87.3% and 42.6%.
On to `CC1(C)C2CCC1(C)C(O)C2` (centres undefined) [BORNEOL], for which the inhibition of growth at 100 ppm came to 21.1% in test [1] and 27.7% in test [2]. In addition, the inhibition of growth at 1000 ppm in test [3] and in test [4] was 100% in each case.
In the case of `CC(C)=CCCC(C)CCO` (centres undefined) [CITRONELLOL], the inhibition of growth at 100 ppm in test [1] was found to be 68.9%; in test [2], 23.9%. Also, the inhibition of growth at 1000 ppm in test [3] and in test [4] was 100% each time.
Take `Cc1ccc(OP2(=S)N[C@@H](Cc3ccccc3)CO2)c(C(C)C)c1` (some centres undefined): the inhibition of growth at 100 ppm in test [1] stood at 9.4%; in test [2] it was 15.3%. Besides, the inhibition of growth at 1000 ppm turned out to be 58.2% in test [3] and 36% in test [4].
As to `C=CCc1ccc(OP2(=S)N[C@@H](C(C)C)CO2)c(OC)c1` (some centres undefined), the figures for the inhibition of growth at 100 ppm in test [1] and in test [2] were 53.9% and 37.5%, respectively.
As for `CC(C)=CCC/C(C)=C/CO` [GERANIOL], the results for the inhibition of growth at 100 ppm in test [1] and in test [2] were 63.3% and 71.8%, respectively. Also, the inhibition of growth at 1000 ppm in test [3] and in test [4] was 100% in each case.
Turning to `CC(=O)CCc1ccccc1` [BENZYLACETONE], the inhibition of growth at 100 ppm stood at 24.5% in test [1] and 30.5% in test [2]. Also, the inhibition of growth at 1000 ppm in test [3] and in test [4] was 100% each time.
For the molecule `CC1=CCC2CC1C2(C)C` (stereo not drawn) [ALPHA-PINENE], the inhibition of growth at 100 ppm in test [1] came out at 4%; in test [2], 0.8%. Besides, the inhibition of growth at 1000 ppm is 0% in test [3] and 46.3% in test [4].
The corresponding values for `CC(C)c1ccc(C=O)cc1` [CUMINALDEHYDE] are 14%, 22%, 100% and 100%.
`Cc1ccc(OP2(=S)N[C@@H](C(C)C)CO2)c(C(C)C)c1` (some centres undefined): the figures for the inhibition of growth at 100 ppm in test [1] and in test [2] were 24.3% and 0%, respectively.
Regarding `CC1=CC[C@@H](C(C)(C)O)CC1` [ALPHA-TERPINEOL], the inhibition of growth at 100 ppm in test [1] turned out to be 11.2%; in test [2] it was 71.8%. Also, the inhibition of growth at 1000 ppm in test [3] and in test [4] was 100% throughout.
In the case of `C=CCc1ccc(OP2(=S)N[C@@H]([C@@H](C)CC)CO2)c(OC)c1` (some centres undefined), the inhibition of growth at 100 ppm amounted to 41.7% in test [1] and 25.3% in test [2].
Turning to `Cc1ccc(C(C)C)c(OP2(=S)N[C@@H](C)CO2)c1` (some centres undefined), the inhibition of growth at 100 ppm in test [1] and in test [2] was 0% in each case.
Consider `CC[C@H](C)[C@H]1COP(=S)(Oc2cc(C)ccc2C(C)C)N1` (some centres undefined), for which the figures for the inhibition of growth at 100 ppm in test [1] and in test [2] were 3.7% and 0%, respectively.
On to `CC(C)=CCCC(C)CCOP1(=S)N[C@@H](C)CO1` (some centres undefined), for which the inhibition of growth at 100 ppm in test [1] and in test [2] was 0% throughout.
For the molecule `CC[C@H](C)[C@H]1COP(=S)(OCCC(C)CCC=C(C)C)N1` (some centres undefined), the inhibition of growth at 100 ppm in test [1] and in test [2] was 0% throughout.
Turning to `C=CCc1ccc(OP2(=S)N[C@@H](CC(C)C)CO2)c(OC)c1` (some centres undefined), the inhibition of growth at 100 ppm in test [1] stood at 9.9%; in test [2], 0.8%.
Turning to `CC12CCC(CC1=O)C2(C)C` (centres undefined) [CAMPHOR], the figures for the inhibition of growth at 100 ppm in test [1] and in test [2] were 0% and 0.4%, respectively. Further, the inhibition of growth at 1000 ppm in test [3] turned out to be 9.3%; in test [4], 22.1%.
On to `Cc1ccc(C(C)C)c(OP2(=S)N[C@@H](C(C)C)CO2)c1` (some centres undefined), for which the inhibition of growth at 100 ppm was 29.8% in test [1] and 18.7% in test [2].
As for `CC12CCC(CC1)C(C)(C)O2` [EUCALYPTOL], the inhibition of growth at 100 ppm turned out to be 0% in test [1] and 8.3% in test [2]. Also, the inhibition of growth at 1000 ppm in test [3] came out at 0.4%; in test [4], 0%.
For the molecule `CC(C)=CCC/C(C)=C/COP1(=S)N[C@@H](C)CO1` (some centres undefined), the inhibition of growth at 100 ppm in test [1] was determined as 20.2%; in test [2], 22.7%.
For `Cc1ccc(C(C)C)c(OP2(=S)N[C@@H](CC(C)C)CO2)c1` (some centres undefined), the inhibition of growth at 100 ppm in test [1] turned out to be 19.8%; in test [2], 36.8%. Moreover, the inhibition of growth at 1000 ppm in test [3] amounted to 36.1%; in test [4], 77.1%.
With `CC[C@H](C)[C@H]1COP(=S)(Oc2ccc(C)cc2C(C)C)N1` (some centres undefined), the values for the inhibition of growth at 100 ppm in test [1] and in test [2] were 12.5% and 0%, respectively.
Regarding `CC1(C)C2CC=C(CO)C1C2` (centres undefined) [MYRTENOL], the inhibition of growth at 100 ppm was 41% in test [1] and 56% in test [2]. In addition, the inhibition of growth at 1000 ppm in test [3] and in test [4] was 100% each time.
Take `Cc1ccc(O)c(C(C)C)c1` [ISOTHYMOL]: the inhibition of growth at 100 ppm in test [1] stood at 94.3%; in test [2], 72.4%. In addition, the inhibition of growth at 1000 ppm in test [3] and in test [4] was 100% each time.
As for `CC(C)=CCC/C(C)=C/COP1(=S)N[C@@H](Cc2ccccc2)CO1` (some centres undefined), the inhibition of growth at 100 ppm in test [1] was 4%; in test [2], 28.5%. Also, the inhibition of growth at 1000 ppm in test [3] came out at 16.9%; in test [4] it was 60.4%.
The corresponding values for `CC(C)=CCCC(C)CCOP1(=S)N[C@@H](Cc2ccccc2)CO1` (some centres undefined) are 1.6%, 21.1%, 30.8% and 66.8%.
The corresponding values for `C=CCc1ccc(O)c(OC)c1` [EUGENOL] are 92.7%, 67.6%, 100% and 100%.
For `Cc1ccc(C(C)C)c(O)c1` [THYMOL], the values for the inhibition of growth at 100 ppm in test [1] and in test [2] were 93% and 71%, respectively. The inhibition of growth at 1000 ppm in test [3] and in test [4] was 100% each time.
Consider `Cc1ccc(OP2(=S)N[C@@H](C)CO2)c(C(C)C)c1` (some centres undefined), for which the figures for the inhibition of growth at 100 ppm in test [1] and in test [2] were 10.8% and 31.7%, respectively.
Take `C=CC(C)(O)CCC=C(C)C` (centres undefined) [LINALOOL]: the inhibition of growth at 100 ppm was 21.3% in test [1] and 46.9% in test [2]. For the same molecule, the inhibition of growth at 1000 ppm is 67.4% in test [3] and 93.9% in test [4].
On to `C=C1CCC2CC1C2(C)C` (stereo not drawn) [BETA-PINENE], for which the inhibition of growth at 100 ppm stood at 0% in test [1] and 1.2% in test [2]. For the same molecule, the inhibition of growth at 1000 ppm in test [3] stood at 2.2%; in test [4] it was 16.3%.
